# Calls of active or inactive are those of the source.
# Legend:
# [1] = molecular target: Myosin-10 (Homo sapiens, UniProt P35580)
# [2] = molecular target: Dual specificity testis-specific protein kinase 1 (Homo sapiens, UniProt Q15569)
# [3] = molecular target: Ephrin type-A receptor 7 (Homo sapiens, UniProt Q15375)
# [4] = molecular target: Serine/threonine-protein kinase N3 (Homo sapiens, UniProt Q6P5Z2)
# [5] = molecular target: Obg-like ATPase 1 (Homo sapiens, UniProt Q9NTK5)
# [6] = molecular target: T1, Thyroid hormone receptor-associated protein 3 (Homo sapiens, UniProt Q9Y2W1)
# T1 sequence (Q9Y2W1 whole entry): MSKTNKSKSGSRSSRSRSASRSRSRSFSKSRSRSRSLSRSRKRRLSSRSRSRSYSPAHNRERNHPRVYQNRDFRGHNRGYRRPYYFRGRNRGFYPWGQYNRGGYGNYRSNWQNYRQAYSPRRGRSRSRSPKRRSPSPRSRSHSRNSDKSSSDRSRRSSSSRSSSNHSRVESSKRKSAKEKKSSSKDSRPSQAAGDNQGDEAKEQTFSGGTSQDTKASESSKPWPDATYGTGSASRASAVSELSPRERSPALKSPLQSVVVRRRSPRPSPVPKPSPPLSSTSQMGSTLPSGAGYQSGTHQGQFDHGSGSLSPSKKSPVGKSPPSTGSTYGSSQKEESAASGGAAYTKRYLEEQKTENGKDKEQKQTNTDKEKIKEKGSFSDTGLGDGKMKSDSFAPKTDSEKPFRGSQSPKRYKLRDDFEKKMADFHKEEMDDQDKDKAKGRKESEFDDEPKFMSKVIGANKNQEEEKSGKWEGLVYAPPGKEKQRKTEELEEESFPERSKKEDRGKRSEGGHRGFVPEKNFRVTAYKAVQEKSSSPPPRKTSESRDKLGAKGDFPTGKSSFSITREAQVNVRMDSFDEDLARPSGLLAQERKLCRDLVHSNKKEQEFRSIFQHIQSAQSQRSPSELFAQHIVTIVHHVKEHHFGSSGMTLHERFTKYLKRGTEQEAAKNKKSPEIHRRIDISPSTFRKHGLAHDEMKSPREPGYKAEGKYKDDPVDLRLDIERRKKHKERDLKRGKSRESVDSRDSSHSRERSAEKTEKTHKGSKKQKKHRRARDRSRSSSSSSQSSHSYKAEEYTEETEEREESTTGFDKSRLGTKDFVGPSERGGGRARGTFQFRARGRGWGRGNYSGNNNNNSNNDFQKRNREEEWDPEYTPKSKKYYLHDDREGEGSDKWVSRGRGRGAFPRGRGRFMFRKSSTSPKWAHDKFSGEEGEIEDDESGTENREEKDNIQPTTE
# [7] = molecular target: T2, Eukaryotic translation initiation factor 5B (Homo sapiens, UniProt O60841)
# T2 sequence (O60841 whole entry): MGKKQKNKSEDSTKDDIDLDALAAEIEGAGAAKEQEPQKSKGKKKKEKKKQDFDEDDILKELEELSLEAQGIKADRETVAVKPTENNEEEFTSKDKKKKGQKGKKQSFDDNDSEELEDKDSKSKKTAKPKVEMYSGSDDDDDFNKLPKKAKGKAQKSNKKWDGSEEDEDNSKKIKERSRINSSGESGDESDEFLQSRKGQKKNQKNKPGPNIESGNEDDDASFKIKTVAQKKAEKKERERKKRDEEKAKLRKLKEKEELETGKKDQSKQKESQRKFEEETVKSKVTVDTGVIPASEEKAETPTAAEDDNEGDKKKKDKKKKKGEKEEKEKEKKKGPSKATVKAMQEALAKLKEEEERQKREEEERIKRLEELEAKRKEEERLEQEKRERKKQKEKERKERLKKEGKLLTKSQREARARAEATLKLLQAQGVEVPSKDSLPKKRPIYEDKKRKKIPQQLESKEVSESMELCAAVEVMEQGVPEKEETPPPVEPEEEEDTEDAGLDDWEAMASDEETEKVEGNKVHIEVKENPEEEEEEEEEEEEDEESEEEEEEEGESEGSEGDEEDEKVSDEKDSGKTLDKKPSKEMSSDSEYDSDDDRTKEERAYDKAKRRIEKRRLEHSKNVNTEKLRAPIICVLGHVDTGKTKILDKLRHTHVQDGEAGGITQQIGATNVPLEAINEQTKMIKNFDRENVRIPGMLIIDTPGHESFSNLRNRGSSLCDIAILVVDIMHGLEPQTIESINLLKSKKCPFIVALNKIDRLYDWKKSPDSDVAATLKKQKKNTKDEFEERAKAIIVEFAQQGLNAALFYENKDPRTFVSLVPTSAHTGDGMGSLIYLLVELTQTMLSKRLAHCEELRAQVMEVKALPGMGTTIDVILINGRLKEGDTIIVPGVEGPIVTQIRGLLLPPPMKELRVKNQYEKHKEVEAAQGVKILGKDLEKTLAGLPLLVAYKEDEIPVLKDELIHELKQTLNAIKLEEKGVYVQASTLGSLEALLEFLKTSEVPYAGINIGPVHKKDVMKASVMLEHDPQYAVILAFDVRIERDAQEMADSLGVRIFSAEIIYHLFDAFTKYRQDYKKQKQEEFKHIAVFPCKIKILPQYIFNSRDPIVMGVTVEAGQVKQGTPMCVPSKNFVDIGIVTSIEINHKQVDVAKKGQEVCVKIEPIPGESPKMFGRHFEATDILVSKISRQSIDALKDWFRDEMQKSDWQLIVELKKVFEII
# [8] = molecular target: Serine/threonine-protein kinase PLK1 (Homo sapiens, UniProt P53350)
# Chain of Serine/threonine-protein kinase PLK1 (P53350 whole entry): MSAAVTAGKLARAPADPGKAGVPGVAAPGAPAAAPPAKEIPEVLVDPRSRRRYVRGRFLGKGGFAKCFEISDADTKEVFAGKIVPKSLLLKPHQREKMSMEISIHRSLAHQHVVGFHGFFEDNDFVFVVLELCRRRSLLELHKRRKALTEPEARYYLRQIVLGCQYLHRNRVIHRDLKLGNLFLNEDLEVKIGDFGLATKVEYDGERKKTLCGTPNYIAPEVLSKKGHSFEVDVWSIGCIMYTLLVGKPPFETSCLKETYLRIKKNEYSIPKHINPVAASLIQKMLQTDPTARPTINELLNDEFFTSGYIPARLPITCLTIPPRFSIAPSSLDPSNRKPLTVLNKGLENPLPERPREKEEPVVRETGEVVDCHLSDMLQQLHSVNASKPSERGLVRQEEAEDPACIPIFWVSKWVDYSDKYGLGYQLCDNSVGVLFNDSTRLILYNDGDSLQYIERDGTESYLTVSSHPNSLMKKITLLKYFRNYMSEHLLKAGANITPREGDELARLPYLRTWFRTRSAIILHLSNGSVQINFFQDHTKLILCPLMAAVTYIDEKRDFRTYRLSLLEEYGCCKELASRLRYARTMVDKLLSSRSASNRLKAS
# Further: in the data inactive means no Kd found up to 30 µM.
# Chain of Serine/threonine-protein kinase N3 (Q6P5Z2 whole entry): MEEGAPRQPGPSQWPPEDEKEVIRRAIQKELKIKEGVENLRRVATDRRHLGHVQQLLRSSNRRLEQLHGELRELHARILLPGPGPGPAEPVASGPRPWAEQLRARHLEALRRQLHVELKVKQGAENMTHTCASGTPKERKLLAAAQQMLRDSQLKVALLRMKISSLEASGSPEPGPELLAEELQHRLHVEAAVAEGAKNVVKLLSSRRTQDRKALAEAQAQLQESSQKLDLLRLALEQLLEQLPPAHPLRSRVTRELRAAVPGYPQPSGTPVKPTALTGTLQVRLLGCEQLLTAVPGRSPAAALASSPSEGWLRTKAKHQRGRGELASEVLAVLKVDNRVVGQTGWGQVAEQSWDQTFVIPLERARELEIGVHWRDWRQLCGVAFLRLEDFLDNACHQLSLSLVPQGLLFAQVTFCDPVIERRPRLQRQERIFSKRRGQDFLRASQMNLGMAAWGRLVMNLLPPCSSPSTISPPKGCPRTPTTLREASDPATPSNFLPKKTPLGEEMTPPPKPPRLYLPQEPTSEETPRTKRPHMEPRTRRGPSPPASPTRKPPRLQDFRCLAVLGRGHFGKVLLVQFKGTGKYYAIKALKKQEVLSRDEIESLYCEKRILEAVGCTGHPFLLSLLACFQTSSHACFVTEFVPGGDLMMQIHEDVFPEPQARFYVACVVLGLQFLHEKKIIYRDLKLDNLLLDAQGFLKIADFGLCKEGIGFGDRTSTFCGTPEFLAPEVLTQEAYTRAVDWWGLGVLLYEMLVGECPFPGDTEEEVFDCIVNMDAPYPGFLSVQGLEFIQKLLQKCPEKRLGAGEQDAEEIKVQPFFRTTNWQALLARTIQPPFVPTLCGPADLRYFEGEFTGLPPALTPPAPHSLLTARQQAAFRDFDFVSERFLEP
# Chain of Myosin-10 (P35580 whole entry): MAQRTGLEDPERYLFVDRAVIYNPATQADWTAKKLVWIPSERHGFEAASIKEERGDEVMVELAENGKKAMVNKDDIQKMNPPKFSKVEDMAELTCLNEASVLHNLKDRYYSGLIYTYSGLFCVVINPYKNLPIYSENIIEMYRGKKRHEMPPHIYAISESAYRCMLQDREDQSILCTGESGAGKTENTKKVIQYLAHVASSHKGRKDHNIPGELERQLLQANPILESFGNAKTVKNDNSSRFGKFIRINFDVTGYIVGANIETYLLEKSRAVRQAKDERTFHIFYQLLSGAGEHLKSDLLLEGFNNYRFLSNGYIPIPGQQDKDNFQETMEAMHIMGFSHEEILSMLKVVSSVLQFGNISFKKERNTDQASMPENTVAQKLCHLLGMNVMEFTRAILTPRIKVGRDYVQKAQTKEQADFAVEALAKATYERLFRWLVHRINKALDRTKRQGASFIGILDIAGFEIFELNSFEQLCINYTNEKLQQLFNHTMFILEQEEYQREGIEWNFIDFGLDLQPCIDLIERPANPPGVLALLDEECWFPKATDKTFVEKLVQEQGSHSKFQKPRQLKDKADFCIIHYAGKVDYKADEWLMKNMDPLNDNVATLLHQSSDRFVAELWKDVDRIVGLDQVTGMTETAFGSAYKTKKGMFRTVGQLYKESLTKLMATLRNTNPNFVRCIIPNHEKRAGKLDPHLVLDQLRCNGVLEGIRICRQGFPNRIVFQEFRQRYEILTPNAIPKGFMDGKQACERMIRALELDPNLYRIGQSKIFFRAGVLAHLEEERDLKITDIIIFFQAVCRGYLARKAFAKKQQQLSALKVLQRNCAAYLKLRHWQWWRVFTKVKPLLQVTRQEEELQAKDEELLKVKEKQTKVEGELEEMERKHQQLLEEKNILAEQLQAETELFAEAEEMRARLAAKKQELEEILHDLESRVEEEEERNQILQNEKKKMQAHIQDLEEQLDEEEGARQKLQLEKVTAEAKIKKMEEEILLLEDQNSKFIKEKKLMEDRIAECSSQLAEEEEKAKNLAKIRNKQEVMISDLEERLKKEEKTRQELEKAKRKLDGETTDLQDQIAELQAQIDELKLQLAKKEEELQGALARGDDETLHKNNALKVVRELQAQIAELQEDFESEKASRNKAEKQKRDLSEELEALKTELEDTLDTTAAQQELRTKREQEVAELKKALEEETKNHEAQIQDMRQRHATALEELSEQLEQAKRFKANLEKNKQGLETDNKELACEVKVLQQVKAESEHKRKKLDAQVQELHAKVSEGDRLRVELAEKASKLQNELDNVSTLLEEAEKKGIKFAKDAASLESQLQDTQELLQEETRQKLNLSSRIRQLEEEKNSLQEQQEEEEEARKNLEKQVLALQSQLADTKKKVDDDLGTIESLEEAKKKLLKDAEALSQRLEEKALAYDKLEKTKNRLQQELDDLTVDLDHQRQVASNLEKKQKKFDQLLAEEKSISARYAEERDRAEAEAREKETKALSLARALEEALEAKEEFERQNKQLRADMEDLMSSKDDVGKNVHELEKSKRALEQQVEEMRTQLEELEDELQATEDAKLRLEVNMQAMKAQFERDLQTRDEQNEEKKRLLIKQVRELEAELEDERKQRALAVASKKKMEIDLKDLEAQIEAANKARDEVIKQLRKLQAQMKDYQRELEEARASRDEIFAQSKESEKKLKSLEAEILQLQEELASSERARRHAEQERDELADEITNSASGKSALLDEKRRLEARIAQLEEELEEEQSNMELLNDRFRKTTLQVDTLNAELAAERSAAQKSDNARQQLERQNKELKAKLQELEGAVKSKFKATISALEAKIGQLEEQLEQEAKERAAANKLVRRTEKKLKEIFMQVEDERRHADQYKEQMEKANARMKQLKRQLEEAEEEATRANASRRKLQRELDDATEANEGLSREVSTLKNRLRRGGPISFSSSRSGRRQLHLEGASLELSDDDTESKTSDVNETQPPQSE
# Chain of Obg-like ATPase 1 (Q9NTK5 whole entry, looked up): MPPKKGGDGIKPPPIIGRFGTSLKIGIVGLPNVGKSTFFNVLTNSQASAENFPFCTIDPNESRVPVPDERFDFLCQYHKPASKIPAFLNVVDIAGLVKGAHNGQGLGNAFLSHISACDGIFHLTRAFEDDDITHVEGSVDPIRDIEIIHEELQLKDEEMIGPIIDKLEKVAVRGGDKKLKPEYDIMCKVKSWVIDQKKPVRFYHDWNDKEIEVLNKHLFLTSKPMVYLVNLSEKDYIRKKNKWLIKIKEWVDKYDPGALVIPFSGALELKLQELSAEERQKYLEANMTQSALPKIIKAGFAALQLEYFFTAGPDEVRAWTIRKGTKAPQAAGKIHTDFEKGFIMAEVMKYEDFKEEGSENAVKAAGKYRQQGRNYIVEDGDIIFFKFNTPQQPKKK
# Chain of Ephrin type-A receptor 7 (Q15375 whole entry): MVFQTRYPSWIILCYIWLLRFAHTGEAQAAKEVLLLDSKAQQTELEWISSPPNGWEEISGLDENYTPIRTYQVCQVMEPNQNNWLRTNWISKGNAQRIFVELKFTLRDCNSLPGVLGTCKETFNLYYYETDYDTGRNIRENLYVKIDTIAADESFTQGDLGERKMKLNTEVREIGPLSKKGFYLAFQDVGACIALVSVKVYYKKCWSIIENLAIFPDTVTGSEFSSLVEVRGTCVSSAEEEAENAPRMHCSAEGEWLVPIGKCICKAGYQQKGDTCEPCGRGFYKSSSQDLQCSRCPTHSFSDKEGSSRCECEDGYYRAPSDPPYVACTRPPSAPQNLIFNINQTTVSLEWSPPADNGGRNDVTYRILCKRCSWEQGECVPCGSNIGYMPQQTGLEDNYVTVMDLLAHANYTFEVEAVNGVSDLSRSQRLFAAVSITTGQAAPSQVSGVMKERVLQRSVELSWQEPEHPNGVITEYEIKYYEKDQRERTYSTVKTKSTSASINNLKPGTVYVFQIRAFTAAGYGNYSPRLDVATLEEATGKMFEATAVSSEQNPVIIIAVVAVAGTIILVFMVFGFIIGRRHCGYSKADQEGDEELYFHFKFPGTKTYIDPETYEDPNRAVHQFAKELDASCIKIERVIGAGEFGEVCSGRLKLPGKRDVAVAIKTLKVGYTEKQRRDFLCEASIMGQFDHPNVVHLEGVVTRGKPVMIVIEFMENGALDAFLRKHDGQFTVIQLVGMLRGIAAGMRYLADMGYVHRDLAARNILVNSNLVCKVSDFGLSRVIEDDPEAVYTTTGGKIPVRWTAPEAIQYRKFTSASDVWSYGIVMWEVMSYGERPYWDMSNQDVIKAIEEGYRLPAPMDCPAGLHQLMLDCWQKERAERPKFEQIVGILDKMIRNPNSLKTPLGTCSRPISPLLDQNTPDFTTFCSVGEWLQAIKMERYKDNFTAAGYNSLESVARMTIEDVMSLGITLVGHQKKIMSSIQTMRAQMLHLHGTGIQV
SMILES,Kd [1],Kd [2],Kd [3],Kd [4],Kd [5],Kd [6],Kd [7],Kd [8]
CCc1cnn2c(NCc3ccc[n+]([O-])c3)cc(N3CCCC[C@H]3CCO)nc12 [DINACICLIB],> 30 µM (inactive),> 30 µM (inactive),> 30 µM (inactive),> 30 µM (inactive),> 30 µM (inactive),> 30 µM (inactive),> 30 µM (inactive),–
CC[C@H](Nc1ncnc2[nH]cnc12)c1nc2cccc(F)c2c(=O)n1-c1ccccc1 [IDELALISIB],–,> 30 µM (inactive),> 30 µM (inactive),> 30 µM (inactive),–,> 30 µM (inactive),> 30 µM (inactive),> 30 µM (inactive)
CC(C)Nc1cc(-c2c[nH]c(C(=O)N[C@H](CO)c3cccc(Cl)c3)c2)c(Cl)cn1 [ULIXERTINIB],> 30 µM (inactive),> 30 µM (inactive),–,–,–,–,–,> 30 µM (inactive)
Cc1ccc(-n2nc(C(C)(C)C)cc2NC(=O)NCc2cc(F)ccc2Oc2ccc3c(cnn3CCO)c2)cc1 [PEXMETINIB],> 30 µM (inactive),> 30 µM (inactive),3.31 µM (active),> 30 µM (inactive),> 30 µM (inactive),–,> 30 µM (inactive),> 30 µM (inactive)
CCn1c(=O)c(-c2cc[nH]n2)cc2c(C)nc(N)nc21 [VOXTALISIB],> 30 µM (inactive),> 30 µM (inactive),–,–,> 30 µM (inactive),> 30 µM (inactive),> 30 µM (inactive),> 30 µM (inactive)
N[C@@H]1CCCN(c2c(/C=C3\SC(=O)NC3=O)cccc2-c2ccccc2)C1,> 30 µM (inactive),–,> 30 µM (inactive),–,> 30 µM (inactive),–,> 30 µM (inactive),> 30 µM (inactive)
CNC(=O)c1cc(Oc2ccc(NC(=O)Nc3ccc(Cl)c(C(F)(F)F)c3)c(F)c2)ccn1 [REGORAFENIB],> 30 µM (inactive),–,–,> 30 µM (inactive),> 30 µM (inactive),–,> 30 µM (inactive),> 30 µM (inactive)
COCCNCc1ccc(-c2cc3nccc(Oc4ccc(NC(=S)NC(=O)Cc5ccc(F)cc5)cc4F)c3s2)nc1 [GLESATINIB],> 30 µM (inactive),> 30 µM (inactive),–,> 30 µM (inactive),> 30 µM (inactive),> 30 µM (inactive),> 30 µM (inactive),> 30 µM (inactive)
CN1CC[C@@H](c2c(O)cc(O)c3c(=O)cc(-c4ccccc4Cl)oc23)[C@@H]1CO,–,> 30 µM (inactive),> 30 µM (inactive),> 30 µM (inactive),> 30 µM (inactive),> 30 µM (inactive),> 30 µM (inactive),0.021 µM
COc1cc(OC)c(/C=C/S(=O)(=O)Cc2ccc(OC)c(NCC(=O)O)c2)c(OC)c1 [RIGOSERTIB],> 30 µM (inactive),> 30 µM (inactive),> 30 µM (inactive),> 30 µM (inactive),> 30 µM (inactive),> 30 µM (inactive),> 30 µM (inactive),–
COc1cc2nccc(Oc3ccc(NC(=O)Nc4cc(C)on4)c(Cl)c3)c2cc1OC [TIVOZANIB],> 30 µM (inactive),> 30 µM (inactive),–,> 30 µM (inactive),> 30 µM (inactive),> 30 µM (inactive),> 30 µM (inactive),> 30 µM (inactive)
CN1CCC(COc2cnc(-c3cccc(Cn4nc(-c5cccc(C#N)c5)ccc4=O)c3)nc2)CC1 [TEPOTINIB],–,> 30 µM (inactive),> 30 µM (inactive),–,> 30 µM (inactive),> 30 µM (inactive),> 30 µM (inactive),> 30 µM (inactive)
Cc1cc(-c2cc(O)ccc2Cl)cc2nnc(Nc3ccc(OCCN4CCCC4)cc3)nc12,> 30 µM (inactive),> 30 µM (inactive),> 30 µM (inactive),> 30 µM (inactive),> 30 µM (inactive),–,–,> 30 µM (inactive)
Cc1c(F)cc(C(=O)NC2CC2)cc1-c1ccc(C(=O)NCC(C)(C)C)cn1 [LOSMAPIMOD],–,> 30 µM (inactive),> 30 µM (inactive),> 30 µM (inactive),> 30 µM (inactive),–,> 30 µM (inactive),> 30 µM (inactive)
O=C(c1ccc(F)c(F)c1Nc1ccc(I)cc1F)N1CC(O)([C@@H]2CCCCN2)C1 [COBIMETINIB],–,> 30 µM (inactive),> 30 µM (inactive),> 30 µM (inactive),–,> 30 µM (inactive),> 30 µM (inactive),> 30 µM (inactive)
CCCS(=O)(=O)Nc1ccc(F)c(C(=O)c2c[nH]c3ncc(-c4ccc(Cl)cc4)cc23)c1F [VEMURAFENIB],> 30 µM (inactive),–,–,> 30 µM (inactive),> 30 µM (inactive),> 30 µM (inactive),–,> 30 µM (inactive)

# The next lines start with the values.
Kd [1],Kd [2],Kd [3],Kd [4],Kd [5],Kd [6],Kd [7],Kd [8],SMILES
> 30 µM (inactive),> 30 µM (inactive),> 30 µM (inactive),> 30 µM (inactive),> 30 µM (inactive),> 30 µM (inactive),> 30 µM (inactive),–,O=C(O)[C@]1(Cc2cccc(Nc3nccs3)n2)CC[C@@H](Oc2cccc(Cl)c2F)CC1 [MK-5108]
> 30 µM (inactive),> 30 µM (inactive),> 30 µM (inactive),–,> 30 µM (inactive),> 30 µM (inactive),–,> 30 µM (inactive),O=C1NC(=O)/C(=C/c2ccc3nccc(-c4ccncc4)c3c2)S1 [GSK-1059615]
> 30 µM (inactive),> 30 µM (inactive),> 30 µM (inactive),> 30 µM (inactive),> 30 µM (inactive),> 30 µM (inactive),–,> 30 µM (inactive),OCCn1cc(-c2cnc3nnn(Cc4ccc5ncccc5c4)c3n2)cn1 [PF-04217903]
–,> 30 µM (inactive),> 30 µM (inactive),> 30 µM (inactive),> 30 µM (inactive),> 30 µM (inactive),> 30 µM (inactive),> 30 µM (inactive),O=C(Nc1ccc(-c2ccnc(Nc3ccc(N4CCOCC4)cc3)n2)cc1)C1CCCN1 (stereo unspecified) [XL-019]
> 30 µM (inactive),> 30 µM (inactive),> 30 µM (inactive),> 30 µM (inactive),> 30 µM (inactive),> 30 µM (inactive),> 30 µM (inactive),–,COc1ccc(-c2ccc3c(N4CCOC[C@@H]4C)nc(N4CCOC[C@@H]4C)nc3n2)cc1CO [AZD-8055]
–,> 30 µM (inactive),> 30 µM (inactive),–,> 30 µM (inactive),> 30 µM (inactive),> 30 µM (inactive),> 30 µM (inactive),CCN1CCN(Cc2ccc(-c3cc4c(N[C@H](C)c5ccccc5)ncnc4[nH]3)cc2)CC1 [AEE-788]
